Experimental data from the supplement of paper PMC10331698.
± gives the standard deviation of the averaged measurements.

What was measured:
Assay in all cases: level (log10 ratio to DMSO vehicle control); higher = higher biomarker level / cell amount than vehicle control
[1] = compound: OCCC(F)(F)C(F)(F)C(F)(F)C(F)(F)C(F)(F)C(F)(F)C(F)(F)C(F)(F)F [8:2 Fluorotelomer alcohol]; conditions: 6700 nM; in DMSO
Procedure: (§1)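 BioMAP Diversity Plus panel of 12 human primary cell co-culture systems (3C, 4H, LPS, SAg, BT, BF4T, BE3C, CASM3C, HDF3CGF, KF3CT, MyoF, Mphg). Compounds were added 1 h before stimulation and left for 24 h (MyoF 48 h; BT 72 h for soluble read-outs or 6 d for IgG). Biomarkers were read by ELISA, cytotoxicity by SRB, PBMC viability and proliferation by Alamar Blue. Each well value was divided by the mean of 8 DMSO control wells on the same plate and log10 transformed; duplicate blinded samples were tested at 4 concentrations.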

[2] = compound: FC(F)(I)C(F)(F)C(F)(F)C(F)(F)C(F)(F)C(F)(F)I [1,6-Diiodoperfluorohexane]; conditions: 6700 nM; in DMSO
Procedure: as §1

Tetrafluorosuccinic acid = compound: O=C(O)C(F)(F)C(F)(F)C(=O)O [Tetrafluorosuccinic acid]; conditions: in DMSO
Procedure: as §1

[3] = compound: O=P(O)(O)CCC(F)(F)C(F)(F)C(F)(F)C(F)(F)C(F)(F)C(F)(F)F [2-(Perfluorohexyl)ethylphosphonic acid]; conditions: in DMSO
Procedure: as §1

[4] = compound: C=C(C)C(=O)OCC(F)(F)C(F)(F)C(F)(F)F [2,2,3,3,4,4,4-Heptafluorobutyl methacrylate]; conditions: in DMSO
Procedure: as §1

[5] = compound: FC(F)(F)COC(OCC(F)(F)F)OCC(F)(F)F [tris(Trifluoroethoxy)methane]; conditions: in DMSO
Procedure: as §1

[6] = compound: OCCCC(F)(F)C(F)(F)C(F)(F)C(F)(F)C(F)(F)C(F)(F)C(F)(F)C(F)(F)F [3-(Perfluorooctyl)propanol]; conditions: 6700 nM; in DMSO
Procedure: as §1

[7] = compound: C=CC(=O)OCC(F)(F)C(F)(F)C(F)(F)C(F)(F)C(F)(F)C(F)(F)C(F)(F)C(F)F [1H,1H,9H-Perfluorononyl acrylate]; conditions: in DMSO
Procedure: as §1

Row | Test System | level (log10) [1] | level (log10) [2] | level (log10) (Tetrafluorosuccinic acid; 6700 nM) | level (log10) (Tetrafluorosuccinic acid; 20000 nM) | level (log10) (Tetrafluorosuccinic acid; 60000 nM) | level (log10) ([3]; 6700 nM) | level (log10) ([3]; 20000 nM) | level (log10) ([3]; 60000 nM) | level (log10) ([4]; 6700 nM) | level (log10) ([4]; 20000 nM) | level (log10) ([4]; 60000 nM) | level (log10) ([5]; 6700 nM) | level (log10) ([5]; 20000 nM) | level (log10) ([5]; 60000 nM) | level (log10) [6] | level (log10) ([7]; 6700 nM) | level (log10) ([7]; 20000 nM) | level (log10) ([7]; 60000 nM)
1 | CASM3C:CD106/VCAM-1 | -0.0825 ± 0.015 | -0.041 | 0.0015 ± 0.0035 | -0.008 ± 0.027 | -0.0045 ± 0.0064 | -0.0105 ± 0.035 | 0.041 ± 0.014 | 0.0775 ± 0.044 | 0.0205 ± 0.013 | -0.006 ± 0.04 | 0.001 ± 0.02 | -0.0095 ± 0.005 | -0.02 ± 0.0014 | -0.025 ± 0.0057 | -0.0895 ± 0.019 | -0.0885 ± 0.028 | -0.0715 ± 0.07 | -0.12 ± 0.067
2 | CASM3C:CD141/Thrombomodulin | 0.0135 ± 0.0021 | 0.008 | -0.0015 ± 0.012 | 0.013 ± 0.023 | -0.0265 ± 0.025 | 0.027 ± 0.017 | 0.0185 ± 0.011 | 0.016 ± 0.0042 | 0.0205 ± 0.011 | 0 ± 0.042 | 0.0115 ± 0.036 | -0.0075 ± 0.0092 | -0.006 ± 0.025 | -0.0125 ± 0.019 | 0.0455 ± 0.019 | -0.014 ± 0.069 | -0.0095 ± 0.0078 | -0.0175 ± 0.033
3 | CASM3C:CD142/Tissue Factor | -0.011 ± 0.014 | 0.001 | -0.0165 ± 0.026 | -0.0345 ± 0.00071 | -0.025 ± 0.024 | -0.0165 ± 0.0064 | -0.007 ± 0.014 | -0.033 ± 0.0071 | -0.006 ± 0.021 | 0 ± 0.038 | 0.0045 ± 0.022 | 0.0185 ± 0.047 | -0.011 ± 0.0085 | -0.0275 ± 0.016 | -0.007 ± 0.054 | 0.0345 ± 0.026 | -0.003 ± 0.061 | -0.016 ± 0.0014
4 | CASM3C:CXCL8/IL-8 | -0.006 ± 0.011 | -0.02 | -0.001 ± 0.0042 | -0.0145 ± 0.018 | -0.002 ± 0.016 | -0.0185 ± 0.013 | -0.0015 ± 0.0021 | 0.0145 ± 0.005 | 0.0035 ± 0.012 | -0.0085 ± 0.032 | 0.012 ± 0.024 | -0.008 ± 0.0042 | -0.01 ± 0.016 | 0.0055 ± 0.03 | -0.008 ± 0.0099 | 0.0175 ± 0.021 | 0.025 ± 0.0028 | 0.0415 ± 0.03
5 | CASM3C:CXCL9/MIG | 0.0025 ± 0.026 | -0.018 | -0.006 ± 0.0099 | -0.0135 ± 0.0021 | 0.014 ± 0.0085 | 0.0095 ± 0.025 | 0.005 ± 0.033 | 0.0335 ± 0.066 | -0.001 ± 0.011 | 0.005 ± 0.0099 | 0.0195 ± 0.0021 | 0.0015 ± 0.012 | -0.0115 ± 0.0064 | -0.0145 ± 0.005 | -0.042 ± 0.0028 | -0.014 ± 0.0042 | -0.0045 ± 0.028 | -0.0035 ± 0.03
6 | CASM3C:HLA-DR | -0.022 ± 0.018 | -0.006 | -0.005 ± 0.0099 | -0.0145 ± 0.013 | 0.0015 ± 0.0064 | 0.0045 ± 0.015 | 0.015 ± 0.023 | 0.0345 ± 0.046 | -0.0035 ± 0.0078 | 0.0125 ± 0.0021 | 0.0135 ± 0.015 | -0.0115 ± 0.0064 | -0.007 | -0.0135 ± 0.023 | -0.0215 ± 0.005 | -0.0945 ± 0.044 | -0.04 ± 0.071 | 0.021 ± 0.033
7 | CASM3C:IL-6 | -0.015 ± 0.014 | -0.063 | -0.0165 ± 0.015 | -0.0295 ± 0.0078 | -0.0015 ± 0.036 | -0.0285 ± 0.005 | -0.0425 ± 0.018 | -0.0095 ± 0.025 | 0.004 ± 0.031 | 0.0105 ± 0.028 | 0.022 ± 0.0071 | -0.019 ± 0.0028 | -0.0295 ± 0.011 | 0.005 ± 0.067 | -0.0335 ± 0.0021 | -0.036 ± 0.042 | 0.0085 ± 0.074 | -0.031 ± 0.047
8 | CASM3C:LDLR | -0.0045 ± 0.0078 | -0.028 | 0.0005 ± 0.0035 | -0.02 ± 0.014 | 0.0015 ± 0.019 | -0.011 ± 0.017 | -0.0115 ± 0.0092 | -0.0135 ± 0.0092 | -0.0045 ± 0.036 | 0.006 ± 0.0042 | 0.0055 ± 0.0078 | -0.0325 ± 0.022 | -0.0055 ± 0.015 | 0.008 ± 0.013 | 0.0385 ± 0.023 | -0.0545 ± 0.026 | 0.0515 ± 0.042 | 0.0355 ± 0.063
9 | CASM3C:M-CSF | -0.0135 ± 0.012 | -0.042 | -0.008 ± 0.035 | -0.015 ± 0.016 | 0.0095 ± 0.033 | 0.0025 ± 0.005 | 0.0115 ± 0.011 | -0.0055 ± 0.037 | 0.003 ± 0.016 | 0.0245 ± 0.019 | 0.024 ± 0.0099 | -0.0565 ± 0.015 | -0.03 ± 0.021 | 0.013 ± 0.037 | -0.0325 ± 0.025 | -0.0225 ± 0.06 | 0.001 ± 0.031 | -0.041 ± 0.071
10 | CASM3C:PAI-I | -0.0035 ± 0.011 | 0.011 | 0.0025 ± 0.0021 | 0.009 ± 0.0042 | 0.0105 ± 0.0035 | -0.0075 ± 0.00071 | -0.0055 ± 0.005 | 0.007 ± 0.013 | -0.003 ± 0.0042 | 0.0005 ± 0.0021 | 0.001 ± 0.0042 | -0.003 ± 0.03 | 0.0015 ± 0.013 | 0.007 ± 0.0057 | -0.0165 ± 0.0092 | 0.007 ± 0.0057 | 0.0045 ± 0.0035 | -0.005 ± 0.028
11 | CASM3C:Proliferation | 0.003 ± 0.017 | -0.119 | 0.001 ± 0.0057 | -0.053 ± 0.016 | -0.0085 ± 0.06 | -0.0385 ± 0.0064 | -0.05 ± 0.013 | -0.06 ± 0.0085 | -0.012 ± 0.027 | -0.0015 ± 0.0035 | 0.0215 ± 0.012 | -0.033 ± 0.021 | -0.042 ± 0.0014 | 0.021 ± 0.027 | -0.026 ± 0.033 | 0.03 ± 0.034 | 0.0175 ± 0.057 | -0.03 ± 0.093
12 | CASM3C:SRB | -0.014 ± 0.0057 | 0.002 | -0.012 ± 0.0028 | -0.005 ± 0.0014 | -0.0105 ± 0.005 | -0.0005 ± 0.0035 | -0.012 ± 0.017 | -0.016 ± 0.02 | 0.0045 ± 0.0021 | -0.0005 ± 0.0092 | -0.004 ± 0.0057 | -0.0005 ± 0.011 | -0.0065 ± 0.013 | -0.0095 ± 0.013 | -0.008 ± 0.0042 | 0.0075 ± 0.015 | 0.005 ± 0.0014 | -0.001 ± 0.014
13 | CASM3C:Serum Amyloid A | 0.0015 ± 0.016 | -0.008 | 0.011 ± 0.011 | 0.017 ± 0.018 | 0.025 ± 0.037 | 0.004 ± 0.023 | -0.0045 ± 0.0035 | 0.0235 ± 0.0092 | 0.0145 ± 0.0078 | 0.03 ± 0.021 | 0.0075 ± 0.0064 | -0.028 ± 0.027 | -0.026 ± 0.04 | 0.0045 ± 0.044 | -0.005 ± 0.024 | -0.014 ± 0.014 | -0.0825 ± 0.071 | -0.067 ± 0.0071
14 | HDF3CGF:CCL2/MCP-1 | -0.0175 ± 0.032 | -0.68 | -0.035 ± 0.0099 | -0.0415 ± 0.0064 | -0.0275 ± 0.012 | -0.0335 ± 0.0021 | -0.013 ± 0.023 | -0.053 ± 0.023 | 0.0055 ± 0.012 | -0.001 ± 0.0057 | -0.0115 ± 0.018 | 0.0035 ± 0.06 | 0.006 ± 0.051 | 0.0165 ± 0.035 | -0.284 ± 0.03 | -0.0315 ± 0.03 | -0.045 ± 0.03 | -0.0815 ± 0.046
15 | HDF3CGF:CD54/ICAM-1 | 0.0315 ± 0.035 | -0.343 | -0.0055 ± 0.03 | -0.006 ± 0.0071 | -0.0105 ± 0.016 | 0.045 ± 0.04 | 0.0145 ± 0.059 | 0.0065 ± 0.044 | -0.008 ± 0.0071 | -0.013 ± 0.0071 | -0.007 ± 0.0099 | -0.0195 ± 0.00071 | -0.013 ± 0.034 | -0.008 ± 0.0057 | -0.113 ± 0.15 | -0.021 ± 0.018 | -0.0435 ± 0.00071 | -0.0765 ± 0.042
16 | HDF3CGF:CD106/VCAM-1 | -0.0265 ± 0.015 | -0.335 | 0.003 ± 0.027 | -0.029 ± 0.037 | -0.033 ± 0.045 | 0.041 ± 0.013 | 0.0625 ± 0.013 | 0 ± 0.0057 | -0.023 ± 0.0042 | -0.017 ± 0.03 | -0.07 ± 0.028 | 0.0315 ± 0.018 | -0.0275 ± 0.021 | -0.0325 ± 0.059 | -0.244 ± 0.013 | -0.0565 ± 0.079 | -0.29 ± 0.029 | -0.453 ± 0.14
